Source: patent publication US20240277658A1, “NLRP3 ACTIVATORS FOR USE IN THE TREATMENT OF INFECTIOUS DISEASES OR CANCER BY ACTIVATING NLRP3 INFLAMMASOME” (ALBERT-LUDWIGS-UNIVERSITÄT FREIBURG, priority 2020, published 2024)
Several values for one entry are separate records, joined by “and”; a condition that tells them apart may be missing. Equal entries are not always repeated. Where two headings read alike, the source gives them in different places.

What was measured:
BMDCs = experiment: LDH release (lytic cell death, pyroptosis) from LPS-primed BMDCs; format: cell-based, mouse; conditions: for Average (% positive control): LDH release; for cytotoxicity at 20 µM / cytotoxicity at 40 µM / cytotoxicity at 80 µM / cytotoxicity at 50 µM: Mus musculus, BMDC; for cytotoxicity at 50 µM: LPS-primed BMDCs
Procedure: (§1) This was tested in cell culture in several different in vitro assays classically used to investigate inflammasome activation. These include measuring inflammasome-dependent lytic cell death (pyroptosis) by detecting release of the cytosolic enzyme lactate dehydrogenase (LDH) using a commercial colorimetric assay and release of proinflammatory cytokines like IL-1β by enzyme-linked immunosorbent assay (ELISA), analyzing cleavage and activation of caspase-1 and IL-1β by immunoblotting and immunofluorescence imaging of ASC speck formation. Lytic cell death was determined via LDH release. Assay results for compounds are illustrated in the Tables below, wherein the concentration of the compounds tested had been 50 μM or as indicated in the table, and the concentration of the known activators has been tested with 5 μM of nigericin, 100 μM of each R837 and CL097. For classification of the activity of a given molecule, release of IL-1β was quantified as % of IL-1% of a respective control activator used for the experiment (highlighted in tables with bold letters). The compounds listes in Table 1 were classified into 4 groups depending on their ability to induce the NLRP3 inflammasome activation, assessed by % IL-1β release as compared to the positive control.
(§2) Mouse bone marrow-derived dendritic cells (BMDCs) were isolated from femurs and tibias previously described (Gross, Olaf, 2012, “Measuring the inflammasome”, Methods in molecular biology, Clifton, N.J., 844, pp. 199-222.). In brief, tibias and femurs were carefully removed and put to sterile 70% ethanol for 1 minute. Using a 22-G needle attached to a 20 ml-syringe filled with sterile flushing medium, the bone marrow was pressed through the mesh of a […] cell strainer. The cells were spun down by centrifugation at 400×g, 4° C. for 5 minutes and red blood cells lysed by resuspension and incubation for 5 minutes at room temperature in RBC lysis buffer. 9 ml of flushing medium were added and cells were again spun down by centrifugation at 400×g, 4° C. for 5 minutes. Cells were then resuspended in BMDC medium (RPMI, 10% fetal bovine serum, 1% penicillin-streptomycin100 U/ml, 20 ng/ml recombinant murine GM-CSF), counted and plated at a density of 0.5×10^6 cells ml^−1 in 10 ml medium and incubated at 37° C., 5% CO2 in a humidified incubator. After 2 days, 10 ml of fresh medium were added to the cells and after 4 days, the medium was fully exchanged to 20 ml of fresh medium. The cells were allowed to differentiate for 6 to 8 days before usage.
(§3) For canonical inflammasome activation BMDCs after 7-9 days of differentiation were harvested and counted with a Neubauer Chamber (Hecht Assistant) and the concentration was set to 1 Mio cells ml^−1. 100 μl cell suspension per well were seeded in 96-well plates. The cells were primed with 50 ng ml^−1 E. coli K12 ultra-pure LPS for 3 hours and subsequently treated with canonical inflammasome activators or experimental compounds for 3 hours if not indicated differently (incubation time FIG. 4D, 5, 7, 8, 11, 13-18: 3 h, FIG. 12: 4 h). Concentrations of the stimuli were as follows if not indicated differently: 5 μM nigericin, 100 μM imiquimod (also known as R837), 100 μM CL097, 100 μM R848, […] poly(dA:dT), 300 μg ml^−1 MSU. If an inhibitor was used before stimuli treatment, the inhibitor was added after 2.5 hours of priming and it was incubated for 30 minutes before inflammasome activation. Inhibitors were used as follows: 3 μM MCC950, 45 mM KCl, 30 μM ebselen (2-Phenyl-1,2-benzoselenazol-3-one), 5 μM cytochalasin D (see FIGS. 8, 11, 12 and 17).
(§4) All inflammasome stimulations were performed in three technical replicates for each condition. […]

NLRP3 inflammasome = molecular target: T1, NLRP3 inflammasome (Mus musculus, UniProt Q8R4B8); experiment: IL-1β release from LPS-primed BMDCs (ELISA) as readout of NLRP3 inflammasome activation; format: cell-based
T1 construct: endogenous in cells; host or cells: primary mouse bone marrow-derived dendritic cells (BMDCs), LPS-primed
Procedure: as §1, §2, §3, §4

[1] = 20 μM, positive control EN22 20 μM
[2] = 40 μM, positive control EN22 20 μM
[3] = 80 μM, positive control EN22 20 μM
[4] = 20 μM, individual replicate values, read-out: LDH release (% of max.)
[5] = 20 μM, read-out: Average LDH release (% of max.)
[6] = 40 μM, individual replicate values, read-out: LDH release (% of max.)
[7] = 40 μM, read-out: Average LDH release (% of max.)
[8] = 80 μM, individual replicate values, read-out: LDH release (% of max.)
[9] = 80 μM, read-out: Average LDH release (% of max.)
[10] = 20 μM, individual replicate values
[11] = 40 μM, individual replicate values
[12] = 80 μM, individual replicate values
[13] = IL-1β, 20 μM, positive control EN22
[14] = IL-1β, 40 μM, positive control EN22
[15] = IL-1β, 80 μM, positive control EN22
[16] = compound 50 μM, positive control nigericin 5 μM
[17] = compound 50 μM, read-out: Average LDH release (% of max.)
[18] = single replicates, compound 50 μM, read-out: LDH release (% of max.)
[19] = IL-1β release, compound 50 μM, positive control nigericin 5 μM
[20] = compound 50 μM, LPS-primed BMDCs
[21] = single replicates, compound 50 μM, LPS-primed BMDCs

T1 sequence (Q8R4B8 whole entry): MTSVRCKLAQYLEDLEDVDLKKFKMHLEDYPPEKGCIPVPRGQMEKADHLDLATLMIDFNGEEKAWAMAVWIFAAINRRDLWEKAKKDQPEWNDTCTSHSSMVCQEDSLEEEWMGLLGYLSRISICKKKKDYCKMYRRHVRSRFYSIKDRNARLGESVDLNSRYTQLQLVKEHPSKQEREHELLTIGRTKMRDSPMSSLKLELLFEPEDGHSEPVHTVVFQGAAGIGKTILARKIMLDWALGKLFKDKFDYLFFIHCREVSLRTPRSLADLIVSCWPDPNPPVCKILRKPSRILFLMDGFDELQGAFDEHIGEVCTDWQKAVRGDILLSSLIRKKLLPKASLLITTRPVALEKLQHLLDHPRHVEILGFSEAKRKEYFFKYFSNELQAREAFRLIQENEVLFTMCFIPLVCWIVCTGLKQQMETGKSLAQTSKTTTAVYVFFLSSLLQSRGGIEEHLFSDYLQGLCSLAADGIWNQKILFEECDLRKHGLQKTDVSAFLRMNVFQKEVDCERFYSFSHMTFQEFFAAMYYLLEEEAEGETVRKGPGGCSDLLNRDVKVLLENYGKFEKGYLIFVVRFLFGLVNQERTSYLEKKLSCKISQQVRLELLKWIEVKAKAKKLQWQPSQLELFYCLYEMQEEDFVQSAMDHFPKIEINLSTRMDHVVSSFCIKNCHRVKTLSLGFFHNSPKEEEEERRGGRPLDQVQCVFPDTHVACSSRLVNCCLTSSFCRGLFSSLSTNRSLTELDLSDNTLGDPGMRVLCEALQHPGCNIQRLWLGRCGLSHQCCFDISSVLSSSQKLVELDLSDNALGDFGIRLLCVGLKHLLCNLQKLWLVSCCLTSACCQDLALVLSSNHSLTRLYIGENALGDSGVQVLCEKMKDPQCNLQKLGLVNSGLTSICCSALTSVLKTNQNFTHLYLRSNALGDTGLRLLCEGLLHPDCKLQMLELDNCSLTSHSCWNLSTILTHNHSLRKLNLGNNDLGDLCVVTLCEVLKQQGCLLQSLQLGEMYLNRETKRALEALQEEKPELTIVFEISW

| SMILES | Average (% positive control) (BMDCs; [16]) | cytotoxicity at 50 µM (BMDCs; [17]) [%] | cytotoxicity at 50 µM (BMDCs; [18]) [%] | Average (% positive control) (NLRP3 inflammasome; [19]) | Average IL-1β (NLRP3 inflammasome; [20]) [ng/mL] | IL-1β (NLRP3 inflammasome; [21]) | further results |
| --- | --- | --- | --- | --- | --- | --- | --- |
| N#Cc1ccc(NC(=O)Nc2ccc3ncccc3c2)cc1 [JB011, 1-(4-cyanophenyl)-3-(quinolin-6-yl)urea] |  |  |  |  |  |  | Average (% positive control) (BMDCs; [1]): 21.883 % positive control; Average (% positive control) (BMDCs; [2]): 24.799 % positive control; Average (% positive control) (BMDCs; [3]): 31.296 % positive control; cytotoxicity at 20 µM (BMDCs; [4]): 11.5%; cytotoxicity at 20 µM (BMDCs; [5]): 11.7%; cytotoxicity at 40 µM (BMDCs; [6]): 12.6%; cytotoxicity at 40 µM (BMDCs; [7]): 13.2%; cytotoxicity at 80 µM (BMDCs; [8]): 16.4%; cytotoxicity at 80 µM (BMDCs; [9]): 16.7%; Average IL-1β (NLRP3 inflammasome; 20 μM): 0.576 ng/mL; IL-1β (NLRP3 inflammasome; [10]): 0.562 ng/mL and 0.612 ng/mL and 0.553 ng/mL; Average IL-1β (NLRP3 inflammasome; 40 μM): 0.604 ng/mL; IL-1β (NLRP3 inflammasome; [11]): 0.538 ng/mL and 0.564 ng/mL and 0.711 ng/mL; Average IL-1β (NLRP3 inflammasome; 80 μM): 0.752 ng/mL; IL-1β (NLRP3 inflammasome; [12]): 0.912 ng/mL and 0.737 ng/mL and 0.607 ng/mL; Average (% positive control) (NLRP3 inflammasome; [13]): 29.413 % positive control; Average (% positive control) (NLRP3 inflammasome; [14]): 30.877 % positive control; Average (% positive control) (NLRP3 inflammasome; [15]): 38.413 % positive control |
| CN(C)Cc1ccc(NC(=O)Nc2ccccc2)cc1 [L01.121, 3-{4-[(dimethylamino)-methyl]phenyl}-1-phen-ylurea] | 11.907 | 8.71 | 7.8 | 0.906 | 0.065 | 0.066 ng/mL and 0.068 ng/mL and 0.060 ng/mL |  |
| COc1cccc(C)c1NC(=O)NC(c1nc(-c2cccnc2)no1)C(C)C (stereo not drawn) [L01.056, 1-(2-methoxy-6-methyl-phenyl)-3-{2-methyl-1-[3-(pyridin-3-yl)-1,2,4-oxadiazol-5-yl]propyl}-urea] | 13.256 | 9.7 | 9.34 | 0.905 | 0.065 | 0.060 ng/mL and 0.073 ng/mL and 0.062 ng/mL |  |
| O=C(Nc1cccc(Cl)c1)N1CCOCC1c1nc(-c2cccs2)no1 (stereo not drawn) [L01.090, N-(3-chlorophenyl)-3-[3-(thiophen-2-yl)-1,2,4-oxadiazol-5-yl]morph-oline-4-carboxamide] | 20.610 | 15.1 | 15.3 | 1.044 | 0.075 | 0.079 ng/mL and 0.077 ng/mL and 0.069 ng/mL |  |
| CC(C)c1ccc(NC(=O)Nc2ccccc2)cc1 [L01.047, 1-phenyl-3-[4-(propan-2-yl)phenyl]urea] | 16.514 | 12.1 | 12.1 | 7.117 | 0.510 | 0.505 ng/mL and 0.513 ng/mL and 0.512 ng/mL |  |
| O=C(Nc1ccccc1)Nc1ccc2ncc(Br)cc2c1 [JB004, 1-(3-bromoquinolin-6-yl)-3-phenylurea] |  |  |  |  |  |  | Average (% positive control) (BMDCs; [1]): 39.589 % positive control; Average (% positive control) (BMDCs; [2]): 51.749 % positive control; Average (% positive control) (BMDCs; [3]): 68.244 % positive control; cytotoxicity at 20 µM (BMDCs; [4]): 31%; cytotoxicity at 20 µM (BMDCs; [5]): 21.1%; cytotoxicity at 40 µM (BMDCs; [6]): 25.6%; cytotoxicity at 40 µM (BMDCs; [7]): 27.6%; cytotoxicity at 80 µM (BMDCs; [8]): 34.3%; cytotoxicity at 80 µM (BMDCs; [9]): 36.4%; Average IL-1β (NLRP3 inflammasome; 20 μM): 0.971 ng/mL; IL-1β (NLRP3 inflammasome; [10]): 0.966 ng/mL and 0.765 ng/mL and 1.182 ng/mL; Average IL-1β (NLRP3 inflammasome; 40 μM): 1.507 ng/mL; IL-1β (NLRP3 inflammasome; [11]): 1.350 ng/mL and 1.479 ng/mL and 1.691 ng/mL; Average IL-1β (NLRP3 inflammasome; 80 μM): 1.657 ng/mL; IL-1β (NLRP3 inflammasome; [12]): 1.684 ng/mL and 1.413 ng/mL and 1.876 ng/mL; Average (% positive control) (NLRP3 inflammasome; [13]): 49.601 % positive control; Average (% positive control) (NLRP3 inflammasome; [14]): 76.971 % positive control; Average (% positive control) (NLRP3 inflammasome; [15]): 84.675 % positive control |
| Cc1ccc(NC(=O)Nc2ccccc2)cc1NC(=O)NC1CC1 [L01.028, 3-cyclopropyl-1-{2-methyl-5-[(phenyl-carbamoyl)amino]-phenyl}urea] | 19.825 | 14.5 | 12.6 | 9.988 | 0.716 | 0.686 ng/mL and 0.757 ng/mL and 0.705 ng/mL |  |
| O=C(Nc1ccccc1)Nc1ccc(NC(=O)C2CCCC2)cc1 [L01.104, N-{4-[(phenylcarbamo-yl)amino]phenyl}cyclo-pentanecarboxamide] | 24.873 | 18.2 | 17.2 | 16.230 | 1.163 | 1.103 ng/mL and 1.142 ng/mL and 1.246 ng/mL |  |
| CC(C)C(=O)Nc1cccc(NC(=O)Nc2ccccc2)c1 [L01.023, 2-methyl-N-{3-[(phenyl-carbamoyl)amino]phen-yl}propanamide] | 7.611 | 5.57 | 5.1 | 1.021 | 0.073 | 0.065 ng/mL and 0.075 ng/mL and 0.080 ng/mL |  |
| CC(C)CC(NC(=O)Nc1cccc(N2CCC(C)CC2)c1)c1nc(-c2nnc[nH]2)no1 (stereo not drawn) [L01.093, 3-{3-methyl-1-[3-(4H-1,2,4-triazol-3-yl)-1,2,4-oxadiazol-5-yl]butyl}-1-[3-(4-methylpiperidin-1-yl)phenyl]urea] | 11.139 | 8.15 | 6.68 | 0.998 | 0.072 | 0.056 ng/mL and 0.050 ng/mL and 0.108 ng/mL |  |
